{
  "source": "patent US11203601B2",
  "about": "“Tricyclic compounds as glycogen synthase kinase 3 (GSK3) inhibitors and uses thereof” (The Broad Institute, Inc., priority 2017, dated 2021)",
  "experiment_in_all_cases": "Carna kinome panel",
  "format_in_all_cases": "biochemical",
  "settings_in_all_cases": "read-out: % Inhibition at 10 μM of the test compound",
  "key": {"JAK2": {"target": "JAK2 (Homo sapiens (Human), UniProt O60674)", "sequence (O60674 whole entry)": "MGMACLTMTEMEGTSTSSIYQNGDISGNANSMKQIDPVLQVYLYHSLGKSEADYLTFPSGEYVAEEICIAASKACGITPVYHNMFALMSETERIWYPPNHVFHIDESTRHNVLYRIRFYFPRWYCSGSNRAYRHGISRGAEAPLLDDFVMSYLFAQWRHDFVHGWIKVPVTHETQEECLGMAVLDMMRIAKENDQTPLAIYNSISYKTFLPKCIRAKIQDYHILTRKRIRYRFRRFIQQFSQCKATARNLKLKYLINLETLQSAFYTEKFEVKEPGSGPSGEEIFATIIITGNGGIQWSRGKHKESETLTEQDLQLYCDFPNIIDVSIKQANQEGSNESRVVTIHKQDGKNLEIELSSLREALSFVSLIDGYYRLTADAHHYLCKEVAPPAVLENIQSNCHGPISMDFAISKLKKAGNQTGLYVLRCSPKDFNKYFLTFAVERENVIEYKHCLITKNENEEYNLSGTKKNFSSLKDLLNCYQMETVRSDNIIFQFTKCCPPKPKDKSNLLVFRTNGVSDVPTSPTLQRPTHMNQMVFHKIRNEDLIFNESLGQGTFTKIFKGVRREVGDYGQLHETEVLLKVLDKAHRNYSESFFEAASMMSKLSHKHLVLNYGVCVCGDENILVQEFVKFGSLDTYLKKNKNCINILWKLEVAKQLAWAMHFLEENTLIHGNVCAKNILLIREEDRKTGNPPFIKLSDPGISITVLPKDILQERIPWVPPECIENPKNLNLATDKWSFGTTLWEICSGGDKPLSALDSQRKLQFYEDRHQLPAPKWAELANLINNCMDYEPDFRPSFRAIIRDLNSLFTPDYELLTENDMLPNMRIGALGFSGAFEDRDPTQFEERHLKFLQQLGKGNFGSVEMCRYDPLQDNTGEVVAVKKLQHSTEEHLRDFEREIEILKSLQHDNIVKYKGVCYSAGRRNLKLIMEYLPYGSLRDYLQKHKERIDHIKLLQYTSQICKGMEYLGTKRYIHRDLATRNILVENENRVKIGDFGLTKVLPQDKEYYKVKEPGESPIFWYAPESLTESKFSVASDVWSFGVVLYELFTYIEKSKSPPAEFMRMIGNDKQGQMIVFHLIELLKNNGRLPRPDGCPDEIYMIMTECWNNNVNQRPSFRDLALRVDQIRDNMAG"}, "IKKβ": {"target": "IKKβ (Homo sapiens (Human), UniProt O14920)"}, "EGFR(L861Q)": {"target": "EGFR(L861Q) (Homo sapiens (Human), UniProt P00533, L861Q)"}, "IKKα": {"target": "IKKα (Homo sapiens (Human), UniProt O15111)"}, "TXK": {"target": "TXK (Homo sapiens (Human), UniProt P42681)", "sequence (P42681 whole entry)": "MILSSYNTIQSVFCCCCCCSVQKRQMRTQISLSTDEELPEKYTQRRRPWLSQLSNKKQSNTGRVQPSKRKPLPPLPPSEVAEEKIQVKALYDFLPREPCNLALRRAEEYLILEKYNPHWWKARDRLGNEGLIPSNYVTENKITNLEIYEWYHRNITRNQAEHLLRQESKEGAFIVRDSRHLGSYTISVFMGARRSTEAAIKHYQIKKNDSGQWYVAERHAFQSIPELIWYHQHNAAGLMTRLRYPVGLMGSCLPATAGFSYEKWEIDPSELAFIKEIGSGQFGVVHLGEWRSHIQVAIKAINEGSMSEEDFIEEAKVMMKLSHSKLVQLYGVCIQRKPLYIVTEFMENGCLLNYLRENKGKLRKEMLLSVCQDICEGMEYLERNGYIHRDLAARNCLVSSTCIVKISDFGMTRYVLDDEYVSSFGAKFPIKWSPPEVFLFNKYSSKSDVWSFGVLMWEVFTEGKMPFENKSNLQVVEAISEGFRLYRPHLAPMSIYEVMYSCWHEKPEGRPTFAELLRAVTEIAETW"}, "NuaK2": {"target": "NuaK2 (Homo sapiens (Human), UniProt Q9H093)"}, "FER": {"target": "FER (Homo sapiens (Human), UniProt P16591)"}, "EGFR(d746-750)": {"target": "EGFR(d746-750) (Homo sapiens (Human), UniProt P00533, DEL746-750)"}, "MSSK1": {"target": "MSSK1 (Homo sapiens (Human), UniProt Q9UPE1)"}, "PRKX": {"target": "PRKX (Homo sapiens (Human), UniProt P51817)"}, "PDGFRα": {"target": "PDGFRα (Homo sapiens (Human), UniProt P16234)"}, "BLK": {"target": "BLK (Homo sapiens (Human), UniProt P51451)", "sequence (P51451 whole entry)": "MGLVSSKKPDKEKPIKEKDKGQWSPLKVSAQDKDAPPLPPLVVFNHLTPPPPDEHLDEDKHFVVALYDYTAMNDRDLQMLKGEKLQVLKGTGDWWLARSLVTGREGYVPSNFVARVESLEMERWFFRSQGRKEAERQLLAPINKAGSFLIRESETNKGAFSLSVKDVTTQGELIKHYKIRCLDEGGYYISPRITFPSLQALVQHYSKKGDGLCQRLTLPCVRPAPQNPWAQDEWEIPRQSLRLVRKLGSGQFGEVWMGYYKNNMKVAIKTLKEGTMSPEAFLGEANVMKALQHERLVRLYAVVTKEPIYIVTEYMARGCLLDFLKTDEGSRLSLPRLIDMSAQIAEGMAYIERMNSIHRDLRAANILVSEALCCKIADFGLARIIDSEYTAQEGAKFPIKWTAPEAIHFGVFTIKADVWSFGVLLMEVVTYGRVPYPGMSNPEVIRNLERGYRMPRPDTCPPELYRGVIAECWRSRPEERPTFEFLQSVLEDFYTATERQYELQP"}, "ABL(E255K)": {"target": "ABL(E255K) (Homo sapiens (Human), UniProt P00519, E255K)"}, "TYK2": {"target": "TYK2 (Homo sapiens (Human), UniProt P29597)"}, "PASK": {"target": "PASK (Homo sapiens (Human), UniProt Q96RG2)"}, "DYRK1B": {"target": "DYRK1B (Homo sapiens (Human), UniProt Q9Y463)", "description": "(§1) Briefly, a selection of compounds was screened against a panel of kinases at a single concentration of 10 μM. […] This was completed using one of two assays, depending on the kinase being examined: 1) IMAP Assay. A solution of 4× inhibitor, 4× substrate/ATP/metal solution and 2× kinase solution was prepared with assay buffer (20 mM HEPES, 0.01% Tween-20, 2 mM DTT, pH 7.4) and mixed, then incubated in 384-well black plates for 1 hour at room temperature. The IMAP binding reagent (IMAP Screening Express kit; Molecular Devices) was added to each well and incubated for 30 minutes. […] 2) Off-Chip Mobility Shift Assay (MSA). A solution of 4× inhibitor, 4× substrate/ATP/metal solution and 2× kinase solution was prepared with assay buffer (20 mM HEPES, 0.01% Triton X-100, 2 mM DTT, pH 7.5) and mixed, then incubated in 384-well plates for 1 or 5 hours depending on the kinase, at room temperature. Termination buffer (QuickScout Screening assist MSA; Carna Biosciences) was added to each well. The entire reaction mixture was then applied to a LabChip3000 system (Caliper Life Science), and the product and substrate peptide peaks were separated and quantified. […] The entire reaction mixture was then applied to a LabChip3000 system (Caliper Life Science), and the product and substrate peptide peaks were separated and quantified."}, "PAK6": {"target": "PAK6 (Homo sapiens (Human), UniProt Q9NQU5)", "sequence (Q9NQU5 whole entry)": "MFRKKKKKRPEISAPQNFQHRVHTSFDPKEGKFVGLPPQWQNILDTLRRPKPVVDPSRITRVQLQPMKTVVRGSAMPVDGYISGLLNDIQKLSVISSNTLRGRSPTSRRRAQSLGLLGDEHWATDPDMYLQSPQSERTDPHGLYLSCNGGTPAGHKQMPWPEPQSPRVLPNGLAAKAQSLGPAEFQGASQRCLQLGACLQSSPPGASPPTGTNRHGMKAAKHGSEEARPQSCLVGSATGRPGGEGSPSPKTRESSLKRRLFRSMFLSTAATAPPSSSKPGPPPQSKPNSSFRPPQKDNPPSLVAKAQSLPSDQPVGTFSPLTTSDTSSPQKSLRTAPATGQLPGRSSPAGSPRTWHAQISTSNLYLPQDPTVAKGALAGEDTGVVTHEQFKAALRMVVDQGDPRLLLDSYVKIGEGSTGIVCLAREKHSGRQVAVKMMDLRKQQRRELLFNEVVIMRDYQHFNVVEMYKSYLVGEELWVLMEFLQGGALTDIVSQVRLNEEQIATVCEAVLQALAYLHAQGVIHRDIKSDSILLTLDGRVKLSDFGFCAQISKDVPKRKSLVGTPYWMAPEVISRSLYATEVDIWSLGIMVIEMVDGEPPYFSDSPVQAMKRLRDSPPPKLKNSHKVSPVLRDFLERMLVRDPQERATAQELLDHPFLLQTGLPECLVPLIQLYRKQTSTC"}, "PKCβ2": {"target": "PKCβ2 (Homo sapiens (Human), UniProt P05771)"}, "PKCγ": {"target": "PKCγ (Homo sapiens (Human), UniProt P05129)"}, "PKCα": {"target": "PKCα (Homo sapiens (Human), UniProt P17252)"}, "KIT": {"target": "KIT (Homo sapiens (Human), UniProt P10721)"}, "MGC42105": {"target": "MGC42105 (Homo sapiens (Human), UniProt Q8IY84)"}, "KIT(D816V)": {"target": "KIT(D816V) (Homo sapiens (Human), UniProt P10721, D816V)"}, "PKACα": {"target": "PKACα (Homo sapiens (Human), UniProt P17612)"}, "CaMK2β": {"target": "CaMK2β (Homo sapiens (Human), UniProt Q13554)"}, "AurC": {"target": "AurC (Homo sapiens (Human), UniProt Q9UQB9)", "sequence (Q9UQB9 whole entry)": "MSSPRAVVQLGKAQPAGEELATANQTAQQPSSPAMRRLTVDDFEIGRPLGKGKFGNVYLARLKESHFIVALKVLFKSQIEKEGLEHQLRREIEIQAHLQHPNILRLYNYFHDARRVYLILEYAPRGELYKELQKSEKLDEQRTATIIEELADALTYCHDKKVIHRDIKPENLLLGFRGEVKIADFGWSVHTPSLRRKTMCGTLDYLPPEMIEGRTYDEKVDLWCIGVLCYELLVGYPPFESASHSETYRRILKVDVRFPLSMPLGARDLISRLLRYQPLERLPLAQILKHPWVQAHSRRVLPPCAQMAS"}, "RON": {"target": "RON (Homo sapiens (Human), UniProt Q04912)", "sequence (Q04912 25-1400)": "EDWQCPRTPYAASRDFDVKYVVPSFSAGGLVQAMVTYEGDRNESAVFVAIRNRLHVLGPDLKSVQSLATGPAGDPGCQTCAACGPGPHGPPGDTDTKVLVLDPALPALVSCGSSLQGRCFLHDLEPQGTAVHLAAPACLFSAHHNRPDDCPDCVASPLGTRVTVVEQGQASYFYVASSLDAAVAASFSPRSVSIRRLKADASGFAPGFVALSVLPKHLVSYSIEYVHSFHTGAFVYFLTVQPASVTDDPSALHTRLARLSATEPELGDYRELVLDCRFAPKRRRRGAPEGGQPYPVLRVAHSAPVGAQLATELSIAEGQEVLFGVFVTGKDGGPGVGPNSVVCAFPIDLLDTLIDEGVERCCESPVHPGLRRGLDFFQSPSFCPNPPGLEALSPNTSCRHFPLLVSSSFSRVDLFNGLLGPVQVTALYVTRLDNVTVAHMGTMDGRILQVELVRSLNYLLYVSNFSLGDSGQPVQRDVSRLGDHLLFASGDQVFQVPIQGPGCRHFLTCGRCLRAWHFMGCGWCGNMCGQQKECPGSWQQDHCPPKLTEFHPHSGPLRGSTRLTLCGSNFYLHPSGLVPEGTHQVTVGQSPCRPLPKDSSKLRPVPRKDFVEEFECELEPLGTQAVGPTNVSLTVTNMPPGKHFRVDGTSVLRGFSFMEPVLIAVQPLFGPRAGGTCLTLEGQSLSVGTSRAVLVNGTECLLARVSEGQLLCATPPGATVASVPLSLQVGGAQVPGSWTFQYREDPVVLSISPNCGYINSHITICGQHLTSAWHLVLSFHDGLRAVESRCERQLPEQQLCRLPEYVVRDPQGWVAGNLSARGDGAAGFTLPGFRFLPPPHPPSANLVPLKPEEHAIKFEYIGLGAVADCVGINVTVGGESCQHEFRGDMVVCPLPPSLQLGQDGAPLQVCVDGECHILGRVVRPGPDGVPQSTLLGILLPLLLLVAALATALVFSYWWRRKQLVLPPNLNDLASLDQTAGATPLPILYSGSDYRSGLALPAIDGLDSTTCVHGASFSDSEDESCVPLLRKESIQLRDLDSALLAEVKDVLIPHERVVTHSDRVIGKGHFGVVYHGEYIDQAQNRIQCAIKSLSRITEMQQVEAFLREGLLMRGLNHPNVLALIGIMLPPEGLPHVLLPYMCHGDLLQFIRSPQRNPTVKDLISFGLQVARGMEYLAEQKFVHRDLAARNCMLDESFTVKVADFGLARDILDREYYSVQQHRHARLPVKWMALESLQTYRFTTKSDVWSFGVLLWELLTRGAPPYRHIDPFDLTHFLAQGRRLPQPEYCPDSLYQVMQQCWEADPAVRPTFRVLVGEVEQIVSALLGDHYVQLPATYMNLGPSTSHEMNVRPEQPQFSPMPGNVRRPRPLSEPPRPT"}, "Erk1": {"target": "Erk1 (Homo sapiens (Human), UniProt P27361)"}, "NEK1": {"target": "NEK1 (Homo sapiens (Human), UniProt Q96PY6)"}, "p38β": {"target": "p38β (Homo sapiens (Human), UniProt Q15759)"}, "NEK9": {"target": "NEK9 (Homo sapiens (Human), UniProt Q8TD19)"}, "BRAF_Cascade": {"target": "BRAF_Cascade (Homo sapiens (Human), UniProt P15056)"}, "PHKG2": {"target": "PHKG2 (Homo sapiens (Human), UniProt P15735)"}, "FGFR4(V550E)": {"target": "FGFR4(V550E) (Homo sapiens (Human), UniProt P22455, V550E)"}, "TBK1": {"target": "TBK1 (Homo sapiens (Human), UniProt Q9UHD2)"}, "Haspin": {"target": "Haspin (Homo sapiens (Human), UniProt Q8TF76)"}, "DYRK3": {"target": "DYRK3 (Homo sapiens (Human), UniProt O43781)"}, "CK2α2/β": {"target": "CK2α2/β (Homo sapiens (Human), UniProt P19784)", "description": "as §1"}, "EGFR(L858R)": {"target": "EGFR(L858R) (Homo sapiens (Human), UniProt P00533, L858R)"}, "CLK3": {"target": "CLK3 (Homo sapiens (Human), UniProt P49761)", "sequence (P49761 whole entry)": "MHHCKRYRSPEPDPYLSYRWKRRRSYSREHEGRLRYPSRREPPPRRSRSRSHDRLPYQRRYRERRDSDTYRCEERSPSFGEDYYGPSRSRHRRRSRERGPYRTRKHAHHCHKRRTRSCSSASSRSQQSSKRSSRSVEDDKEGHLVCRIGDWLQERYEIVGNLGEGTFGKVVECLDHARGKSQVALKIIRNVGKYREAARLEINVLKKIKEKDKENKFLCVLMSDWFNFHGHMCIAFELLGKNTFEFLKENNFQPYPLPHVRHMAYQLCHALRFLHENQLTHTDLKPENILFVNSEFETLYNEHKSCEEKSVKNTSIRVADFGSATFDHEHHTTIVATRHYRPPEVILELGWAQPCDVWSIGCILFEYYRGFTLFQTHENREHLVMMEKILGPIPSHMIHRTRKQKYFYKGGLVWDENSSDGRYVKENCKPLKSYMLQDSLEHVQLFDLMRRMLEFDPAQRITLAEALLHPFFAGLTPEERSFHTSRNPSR"}},
  "data": [
    {"smiles": "CCC1(c2ccccc2)C2=C(CC(C)(C)CC2=O)Nc2ncsc21", "note": "(stereo not shown) [Compound 1, 9-Ethyl-6,6-dimethyl-9-phenyl-5,6,7,9-tetrahydrothiazolo[4,5-b]quinolin-8(4H)-one]", "values": [
      {"measurement": "inhibition at 10 µM", "setting": "JAK2", "value": -0.9, "unit": "%"},
      {"measurement": "inhibition at 10 µM", "setting": "IKKβ", "value": 2.3, "unit": "%"},
      {"measurement": "inhibition at 10 µM", "setting": "EGFR(L861Q)", "value": -6.1, "unit": "%"},
      {"measurement": "inhibition at 10 µM", "setting": "IKKα", "value": -1.6, "unit": "%"},
      {"measurement": "inhibition at 10 µM", "setting": "TXK", "value": -1.3, "unit": "%"},
      {"measurement": "inhibition at 10 µM", "setting": "NuaK2", "value": 1.5, "unit": "%"},
      {"measurement": "inhibition at 10 µM", "setting": "FER", "value": -7.5, "unit": "%"},
      {"measurement": "inhibition at 10 µM", "setting": "EGFR(d746-750)", "value": -6.1, "unit": "%"},
      {"measurement": "inhibition at 10 µM", "setting": "MSSK1", "value": 1.2, "unit": "%"},
      {"measurement": "inhibition at 10 µM", "setting": "PRKX", "value": 4.2, "unit": "%"},
      {"measurement": "inhibition at 10 µM", "setting": "PDGFRα", "value": -10.1, "unit": "%"},
      {"measurement": "inhibition at 10 µM", "setting": "BLK", "value": 5, "unit": "%"},
      {"measurement": "inhibition at 10 µM", "setting": "ABL(E255K)", "value": -1.4, "unit": "%"},
      {"measurement": "inhibition at 10 µM", "setting": "TYK2", "value": -18.9, "unit": "%"},
      {"measurement": "inhibition at 10 µM", "setting": "PASK", "value": -5.2, "unit": "%"},
      {"measurement": "inhibition at 10 µM", "setting": "DYRK1B", "value": -18.1, "unit": "%"},
      {"measurement": "inhibition at 10 µM", "setting": "PAK6", "value": 3.9, "unit": "%"},
      {"measurement": "inhibition at 10 µM", "setting": "PKCβ2", "value": -10.7, "unit": "%"},
      {"measurement": "inhibition at 10 µM", "setting": "PKCγ", "value": -7.7, "unit": "%"},
      {"measurement": "inhibition at 10 µM", "setting": "PKCα", "value": -11, "unit": "%"},
      {"measurement": "inhibition at 10 µM", "setting": "KIT", "value": 7.1, "unit": "%"},
      {"measurement": "inhibition at 10 µM", "setting": "MGC42105", "value": 4.3, "unit": "%"},
      {"measurement": "inhibition at 10 µM", "setting": "KIT(D816V)", "value": -4.8, "unit": "%"},
      {"measurement": "inhibition at 10 µM", "setting": "PKACα", "value": -0.6, "unit": "%"},
      {"measurement": "inhibition at 10 µM", "setting": "CaMK2β", "value": 2.8, "unit": "%"},
      {"measurement": "inhibition at 10 µM", "setting": "AurC", "value": 8.5, "unit": "%"},
      {"measurement": "inhibition at 10 µM", "setting": "RON", "value": -3.9, "unit": "%"},
      {"measurement": "inhibition at 10 µM", "setting": "Erk1", "value": 5.6, "unit": "%"},
      {"measurement": "inhibition at 10 µM", "setting": "NEK1", "value": 7.5, "unit": "%"},
      {"measurement": "inhibition at 10 µM", "setting": "p38β", "value": 3.8, "unit": "%"},
      {"measurement": "inhibition at 10 µM", "setting": "NEK9", "value": 0.3, "unit": "%"},
      {"measurement": "inhibition at 10 µM", "setting": "BRAF_Cascade", "value": 6.2, "unit": "%"},
      {"measurement": "inhibition at 10 µM", "setting": "PHKG2", "value": -5, "unit": "%"},
      {"measurement": "inhibition at 10 µM", "setting": "FGFR4(V550E)", "value": 4, "unit": "%"},
      {"measurement": "inhibition at 10 µM", "setting": "TBK1", "value": -5.3, "unit": "%"},
      {"measurement": "inhibition at 10 µM", "setting": "Haspin", "value": 1.5, "unit": "%"},
      {"measurement": "inhibition at 10 µM", "setting": "DYRK3", "value": 0.3, "unit": "%"},
      {"measurement": "inhibition at 10 µM", "setting": "CK2α2/β", "value": -11.4, "unit": "%"},
      {"measurement": "inhibition at 10 µM", "setting": "EGFR(L858R)", "value": 22.2, "unit": "%"},
      {"measurement": "inhibition at 10 µM", "setting": "CLK3", "value": 3.9, "unit": "%"}
    ]}
  ]
}
